Data from patent US8956622B2, “Peptidic antagonists of class III semaphorins/neuropilins complexes” (INSERM—Institut National de la Sante et de la Recherche …, priority 2005, dated 2015).
Where two headings read alike, the source gives them in different places.

Assays:
[1] = tested on: cortical axons collapses triggered by Sema3A; assay: Cortical axons collapses triggered by Sema3A in neocortex explants; format: cell-based, mouse; details: Sema3A 100 ng/ml, peptide 10^−8 to 10^−11 M, 2 h, read-out: IC50, inhibition of cortical axons collapses induced by Sema3A
Experimental: The inhibitory axon growth property of Sema 3A is supposed to be linked to its induction capacity of growth cone collapses. To investigate the effect of the pTM-NRP1 peptide on the Sema 3A functional properties, the growth of cortical neurons was analyzed in the presence or not of Sema 3A and of pTM-NRP1 or pTM-NRP1^mut (NRP1 TM with a triple G→V mutation) peptides.
Laminine/Poly-L-Lysine substrates have been made by adding 980 μL of Gey's balanced salt solution (GBSS, SIGMA) to 10 μL laminine (1 mg/ml, SIGMA) and to 10 μL poly-L-Lysine (10 mg/ml, SIGMA). Sterile coverslips have been placed in a big dish and added with substrate (100 μL). Then, ‘sandwiches’ have been prepared by covering each coverslip with a second one. After an incubation for at least 30 min at 37° C. under 5% CO2 in air, ‘sandwiches’ have been opened and each coverslip has been rinsed with deionized water. Explants have been cultured on dried coverslips.
Neocortex fragments prepared from E15 mouse embryos (E1 determined as the first day of embryonic development by detection of vaginal plug) have been transferred on a tissue chopper disk. Tissue have been cut into 200×200 μm by rotating the disk by 90° after the first cut. Cortex cubes have been collected with a spatula and put into culture medium in a Petri dish. Two coverslips with substrate have been placed in a small Petri dish (50 mm diameter, FALCON). After adding 750 μl of culture medium, the coverslips should stay in the incubator for at least 10 minutes. Using a dissecting microscope, forty to fifty cortical explants have been collected in 20 μl culture medium and carefully placed onto the coverslips. After 15 min at room temperature, most explants have adhered to their substrate. 2250 μl of culture medium have been slowly added to each dish. Then, explants cultures have been kept at 37° C. under 5% CO2 in air.
A radial outgrowth could be seen after 18-24 h in culture, and individual fibres and growth cones could have therefore been analyzed. Products tested on growth cones have been directly added in culture medium for 2 h: • purified Sema3A (100 ng/ml) prepared from conditioned medium of HEK293 cells stably expressing Sema3A. The purification was performed by using the anti-Flag system, SIGMA) • pTM-NRP1 (10^−8, 10^−9, 10^−10 and 10^−11 M), • 10^−8M mpTM-NRP1, • 10^−8M pTM-ErbB2w (SEQ ID NO. 18).
After incubation, 4% formaldehyde has been directly added in culture medium (v/v) for 15min. Then the solution has been removed and replaced by 4% formaldehyde for 15 min.

[2] = tested on: COS-1 cells expressing NRP1 and Plexin-A1; assay: COS cellular collapses triggered by Sema3A; format: cell-based; details: peptide 10^−9 M, 1 hour pre-incubation, Sema 3A 4 hours
Experimental: Nevertheless, the artificial expression of NRP1 and Plexin-A1 in COS cells allows Sema 3A to trigger cellular collapses. To investigate the effect of the pTM-NRP1 peptide on the Sema3A functional properties, the shape of COS cells expressing NRP1 and Plexin-A1 was analyzed in the presence or not of Sema 3A and of pTM-NRP1 or pTM-NRP1^mut peptide.
COS-1 cells have been transfected by 1 μg of pBK-CMV (STRATAGENE) plasmids containing NRP1 and plexin-A1 coding sequences (provided by Pr. PUSCHEL; MUNSTER Universitat, Germany) with LIPOFECTAMINE 2000 (IN VITROGEN) according to the manufacturer's instructions in 6-well plates. Stably COS-1 transfected cells have been selected with 0.7% geneticine. Stably transfected COS-1 cells have been cultured on 12-well plates with previously poly-L-lysine-coated glass coverslips. Cells have been then incubated 1 hour with pTM-NRP1 or pTM-NRP1^mut peptide (10^−9M) at 37° C. The culture medium has been then removed and replaced by conditioned medium of HEK cells stably transfected or not with a construction expressing Sema 3A (100 μl/ml D-MEM) for 4 hours at 37° C. Finally, cells have been fixed with 2% formaldehyde for 30 minutes followed by 15 minutes in formaldehyde 4%. For each condition tested, about 400 cells have been analyzed.

[3] = tested on: VEGF165 signalling in C6 cells; assay: VEGF165-induced migration of C6 tumour cell aggregates in 3D matrix (plasma clot); format: cell-based; details: VEGF165 50 ng/ml, peptide 10^−8 M
Experimental: NRP1 is a receptor of VEGF (NEUFELD et al., Adv. Exp. Med. Biol., vol. 515, p: 81-90, 2002). We therefore verified that pTM-NRP1 can antagonize VEGF signalling in C6 cells. To this end, C6 tumour cell aggregates prepared as previously described (see BAGNARD et al., 1998; and NASARRE et al., Neoplasia, vol. 7, p: 180-189, 2005) were grown in the 3D matrix (plasma clot) and treated with VEGF165.

Sequence: ILITIIAMSALGVLLGAVCGVVL [pTM-NRP1]
- IC50 ([1]; listed as peptide corresponding to the transmembrane domain of NRP1): < 0.01 nM
- IC50 [1]: ~0.01 nM
- effect on cellular collapses of COS-1 cells triggered by Sema 3A [2]: completely abolished
- VEGF165-dependent C6 cells migration out of aggregates [3]: suppressed
